Source: ChEMBL document CHEMBL1141733, “Cardiovascular effects of aspidofractinine-type alkaloids from Kopsia” (1998)
Calls of active or inactive are those of the source. The rule behind the calls is not given here.

Experiments:
[1] = test system: Rattus norvegicus; experiment: Antihypertensive activity in anesthetized SHR rat assessed as decrease in basal mean arterial blood pressure at 3 mg/kg, iv; assay type: functional, Artery
[2] = test system: Rattus norvegicus; experiment: Antihypertensive activity in anesthetized SHR rat assessed as increase in heart rate at 3 mg/kg, iv; assay type: functional
[3] = test system: Rattus norvegicus; experiment: Antihypertensive activity in anesthetized SHR rat assessed as decrease in basal mean arterial blood pressure at 3 mg/kg, iv after 10 mins; assay type: functional, Artery
[4] = test system: Rattus norvegicus; experiment: Antihypertensive activity in anesthetized SHR rat assessed as decrease in heart rate at 3 mg/kg, iv after 10 mins; assay type: functional
[5] = test system: Rattus norvegicus; experiment: Antihypertensive activity in anesthetized SHR rat assessed as decrease in basal mean arterial blood pressure at 2 mg/kg, iv after 24 to 26 seconds; assay type: functional, Artery
[6] = test system: Rattus norvegicus; experiment: Antihypertensive activity in anesthetized SHR rat assessed as decrease in heart rate at 2 mg/kg, iv after 24 to 26 seconds; assay type: functional
[7] = test system: Rattus norvegicus; experiment: Antihypertensive activity in anesthetized SHR rat assessed as basal mean arterial blood pressure at 2 mg/kg, iv after 10 mins; assay type: functional, Artery
[8] = test system: Rattus norvegicus; experiment: Antihypertensive activity in anesthetized SHR rat assessed as heart rate at 2 mg/kg, iv after 10 mins; assay type: functional
[9] = test system: Rattus norvegicus; experiment: Antihypertensive activity in iv dosed anesthetized SHR rat assessed as decrease in basal mean arterial blood pressure; assay type: functional, organism-based; conditions: Artery
[10] = test system: Rattus norvegicus; experiment: Antihypertensive activity in iv dosed anesthetized SHR rat assessed as concomitant fall in heart rate; assay type: functional, organism-based
[11] = test system: Rattus norvegicus; experiment: Antihypertensive activity in anesthetized SHR rat assessed as decrease in basal mean arterial blood pressure at 10 mg/kg, iv pretreated with hexamethonium for 10 mins; assay type: functional, organism-based; set-up: dose 10 mg/kg; conditions: Artery
[12] = test system: Rattus norvegicus; experiment: Antihypertensive activity in anesthetized SHR rat assessed as decrease in heart rate at 10 mg/kg, iv pretreated with hexamethonium for 10 mins; assay type: functional, organism-based; set-up: dose 10 mg/kg
[13] = test system: Rattus norvegicus; experiment: Antihypertensive activity in anesthetized SHR rat assessed as decrease in basal mean arterial blood pressure at 10 mg/kg, iv; assay type: functional, Artery
[14] = test system: Rattus norvegicus; experiment: (§1) Antihypertensive activity in anesthetized SHR rat assessed as decrease in heart rate at 10 mg/kg, iv; assay type: functional
[15] = test system: Rattus norvegicus; experiment: Antihypertensive activity in anesthetized SHR rat assessed as decrease in basal mean arterial blood pressure at 10 mg/kg, iv pretreated with phentolamine for 10 mins; assay type: functional, Artery
[16] = test system: Rattus norvegicus; experiment: Antihypertensive activity in anesthetized SHR rat assessed as decrease in heart rate at 10 mg/kg, iv pretreated with phentolamine for 10 mins; assay type: functional
[17] = test system: Rattus norvegicus; experiment: Antihypertensive activity in iv dosed anesthetized WKY rat assessed as hypotensive activity; assay type: functional, organism-based
[18] = test system: Rattus norvegicus; experiment: Antihypertensive activity in anesthetized SHR rat assessed as decrease in basal mean arterial blood pressure at 10 mg/kg, iv pretreated with atropine for 10 mins; assay type: functional, Artery
[19] = test system: Rattus norvegicus; experiment: Antihypertensive activity in anesthetized SHR rat assessed as decrease in heart rate at 10 mg/kg, iv pretreated with atropine for 10 mins; assay type: functional
[20] = test system: Rattus norvegicus; experiment: Antihypertensive activity in anesthetized SHR rat assessed as hypotensive response lasting time at 10 mg/kg, iv; assay type: functional
[21] = test system: Rattus norvegicus; experiment: Antihypertensive activity in anesthetized SHR rat assessed as decrease in basal mean arterial blood pressure at 20 mg/kg, iv after 1 to 1.5 mins; assay type: functional, Artery
[22] = test system: Rattus norvegicus; experiment: Antihypertensive activity in anesthetized SHR rat assessed as decrease in heart rate at 20 mg/kg, iv after 1 to 1.5 mins; assay type: functional
[23] = test system: Rattus norvegicus; experiment: Antihypertensive activity in anesthetized SHR rat assessed as decrease in basal mean arterial blood pressure at 20 mg/kg, iv after 10 mins; assay type: functional, Artery
[24] = test system: Rattus norvegicus; experiment: Antihypertensive activity in anesthetized SHR rat assessed as decrease in heart rate at 20 mg/kg, iv after 10 mins; assay type: functional
[25] = test system: Rattus norvegicus; experiment: Increase in basal mean arterial blood pressure anesthetized SHR rat at 0.2 mg/kg, iv; assay type: functional, organism-based; set-up: dose 0.2 mg/kg
[26] = test system: Rattus norvegicus; experiment: Increase in basal mean arterial blood pressure anesthetized SHR rat at 0.5 mg/kg, iv; assay type: functional, organism-based; set-up: dose 0.5 mg/kg
[27] = test system: Rattus norvegicus; experiment: Increase in basal mean arterial blood pressure anesthetized SHR rat at 1 mg/kg, iv; assay type: functional, organism-based; set-up: dose 1 mg/kg
[28] = test system: Rattus norvegicus; experiment: Increase in basal mean arterial blood pressure anesthetized SHR rat at 2 mg/kg, iv; assay type: functional, organism-based; set-up: dose 2 mg/kg
[29] = test system: Rattus norvegicus; experiment: Increase in basal mean arterial blood pressure anesthetized SHR rat at 5 mg/kg, iv; assay type: functional, organism-based; set-up: dose 5 mg/kg
[30] = test system: Rattus norvegicus; experiment: Increase in basal mean arterial blood pressure anesthetized SHR rat at 10 mg/kg, iv; assay type: functional, organism-based; set-up: dose 10 mg/kg
[31] = test system: Rattus norvegicus; experiment: Antihypertensive activity in anesthetized SHR rat assessed as decrease in heart rate at 0.2 mg/kg, iv; assay type: functional, organism-based; set-up: dose 0.2 mg/kg
[32] = test system: Rattus norvegicus; experiment: Antihypertensive activity in anesthetized SHR rat assessed as decrease in heart rate at 0.5 mg/kg, iv; assay type: functional, organism-based; set-up: dose 0.5 mg/kg
[33] = test system: Rattus norvegicus; experiment: Antihypertensive activity in anesthetized SHR rat assessed as decrease in heart rate at 1 mg/kg, iv; assay type: functional, organism-based; set-up: dose 1 mg/kg
[34] = test system: Rattus norvegicus; experiment: Antihypertensive activity in anesthetized SHR rat assessed as decrease in heart rate at 2 mg/kg, iv; assay type: functional, organism-based; set-up: dose 2 mg/kg
[35] = test system: Rattus norvegicus; experiment: Antihypertensive activity in anesthetized SHR rat assessed as decrease in heart rate at 5 mg/kg, iv; assay type: functional, organism-based; set-up: dose 5 mg/kg
[36] = test system: Rattus norvegicus; experiment: as §1; assay type: functional, organism-based; set-up: dose 10 mg/kg

## Cc1ccc(N(CC2=NCCN2)c2cccc(O)c2)cc1 [PHENTOLAMINE]
[1]
  Activity: 106.7 mmHg
[2]
  Activity: 372.5 bpm
[3]
  Activity: 108.4 mmHg
[4]
  Activity: 356.7 bpm

## CN1[C@@H]2CC[C@H]1C[C@@H](OC(=O)C(CO)c1ccccc1)C2 (stereo partly drawn) [ATROPINE]
[5]
  Activity: 155.6 mmHg
[6]
  Activity: 371 bpm
[7]
  Activity: 160.9 mmHg
[8]
  Activity: 368 bpm

## COC(=O)N1c2c(OC)cccc2[C@@]23CCN4CCC[C@]5(CC[C@]12[C@](O)(C(=O)OC)[C@@H]5O)[C@H]43 [DIHYDROKOPSINGINE]
[9]
  Activity: Dose-dependent effect
[10]
  Activity: Dose-dependent effect
[11]
  Activity: inactive
[12]
  Activity: inactive
[13]
  Activity: -44.7 mmHg
[14]
  Activity: -49.2 bpm
[15]
  Activity: 18.2 mmHg
[16]
  Activity: -52.5 bpm

## COC(=O)N1c2c(OC)cccc2[C@@]23CCN4CC=C[C@]5(CC[C@]12[C@](O)(C(=O)OC)[C@@H]5O)[C@H]43 [KOPSINGINE]
[9]
  Activity: Dose-dependent effect
[17]
  Activity: Dose-dependent effect
[10]
  Activity: Dose-dependent effect
[11]
  Activity: inactive
[12]
  Activity: inactive
[18]
  Activity: -51 mmHg
[13]
  Activity: -68.5 mmHg
[19]
  Activity: -71.5 bpm
[14]
  Activity: -101 bpm
[15]
  Activity: 30.7 mmHg
[16]
  Activity: 66.7 bpm
[20]
  Activity: 3.9 min

## C[N+](C)(C)CCCCCC[N+](C)(C)C.[Cl-].[Cl-] [HEXAMETHONIUM CHLORIDE]
[21]
  Activity: 92 mmHg
[22]
  Activity: 313.6 bpm
[23]
  Activity: 104.8 mmHg
[24]
  Activity: 296.8 bpm

## COC(=O)N1c2c(OC)cccc2[C@@]23CCN4[C@@H]5C[C@@H](OC)[C@]6(CC[C@]12[C@](O)(C(=O)OC)[C@H]6O5)[C@H]43
[9]
  Activity: Dose-dependent effect
[10]
  Activity: Dose-dependent effect
[25]
  Activity: Active
[26]
  Activity: Active
[27]
  Activity: Active
[28]
  Activity: Active
[29]
  Activity: Active
[30]
  Activity: Active
[31]
  Activity: Active
[32]
  Activity: Active
[33]
  Activity: Active
[34]
  Activity: Active
[35]
  Activity: Active
[36]
  Activity: Active

## COC(=O)N1c2c(OC)cccc2[C@@]23CCN4[C@H]5CC[C@]6(CC[C@]12[C@](O)(C(=O)OC)[C@@H]6O5)[C@H]43
[9]
  Activity: Dose-dependent effect
[10]
  Activity: Dose-dependent effect
[25]
  Activity: Active
[26]
  Activity: Active
[27]
  Activity: Active
[28]
  Activity: Active
[29]
  Activity: Active
[30]
  Activity: Active
[31]
  Activity: Active
[32]
  Activity: Active
[34]
  Activity: Active
[35]
  Activity: Active
[36]
  Activity: Active
[11]
  Activity: Active
[12]
  Activity: Active

## COC(=O)N1c2ccccc2[C@]23CCN4CC=C[C@@]5(CC[C@@]12[C@@](O)(C(=O)OC)[C@H]5O)[C@@H]43 [KOPSAPORINE]
[9]
  Activity: Dose-dependent effect
[20]
  Activity: 3.6 min
